In US11154529B2, “Phosphaplatin liquid formulations” (Phosplatin Therapeutics Inc., priority 2016, dated 2021):
Values joined by “and” are separate entries in the source; they are usually repeats but may differ in a detail not shown here. Identical values can stand only once.

Assay: Ready-to-use formulation stability at 25° C./60% RH, 5 mg/mL (R,R)-pyrodach-2 in 10 mM Potassium Phosphate Buffer at pH 7.4, 10 mL vials
Format: physicochemical
Experimental: A scalable and commercially viable process for the manufacture of a ready-to-use formulation of (R,R)-pyrodach-2 in 10 mM buffer adjusted to a pH of 7.0-7.5 comprises the steps of: a) preparing a 10 mM aqueous solution of buffer; b) adding sufficient hydroxide base to effect neutralization of the added (R,R)-pyrodach-2 to reach a pH of about 7; c) adding (R,R)-pyrodach-2 and allowing it to dissolve; d) if necessary adding additional hydroxide to adjust the pH into a range of about 7.0-7.5; and e) filtering the solution under sterile conditions, filling the solution into glass vials, and covering it with a stopper and/or a cap. Stability data on two large batches of 5 mg/mL (R,R)-pyrodach-2 in 10 mM potassium phosphate buffer were generated. One such batch at pH=7.2 was evaluated at both 25° C./60% RH and refrigerated (2-8° C.) conditions, with data summarized in Table 4 and Table 5, respectively. […] Similar observations have been made for the ready-to-use liquid formulation at pH7.4, as illustrated in Table 6 and Table 7.
• Transfer 4564.6 mg±0.5 mg of potassium phosphate dibasic, trihydrate to a 2-L volumetric flask. • Fill flask to approximately 75% volume with water, swirl as needed to dissolve all solids. • Volumetrically transfer 32.0 mL of 1N KOH to flask. • Dilute flask to volume with water and mix well. • Record pH of final solution. This is the diluent. • Transfer 7653.1 mg±0.5 mg of (R,R)-pyrodach-2 to a compounding vessel. • Transfer 1500 mL of the diluent to the vessel and stir to dissolve solids. • Record pH of final solution. • Pass entire solution through a 0.22 μm sterile filter membrane into a sterile collection vessel. • Calculate (R,R)-pyrodach-2 solution concentration
To a […] glass beaker equipped with mechanical mixer was add 24645.5 g of sterile water for injection. With agitation 47.03 gm of dibasic potassium phosphate USP was added and the solids allowed to dissolve. To the stirred solution was added 253.8 gm of 1.00 N potassium hydroxide. Sterile water for injection USP (900.0 gm) was used as a rinse to facilitate both additions. With vigorous agitation, (R,R)-pyrodach-2 (201.87 gm) was slowly added and agitation continued until all of the solids dissolved. Sterile water for injection USP (900.0 gm) was used as a rinse to facilitate the addition. The pH was determined to be 6.7. A total of 85 mL of 1.00 N potassium hydroxide was added in 5.0 mL aliquots to adjust the pH to 7.3. The solution was sterile filtered through 0.22μ Millipore Millipack filter and aseptically filled, 10 ml top a vial in 10 mL in 10 cc Wheaton clear molded vails, stoppered with a 20 mm stopper and crimp seal capped.

O=P1(O)OP(=O)(O)[O][Pt]2([NH][C@@H]3CCCC[C@H]3[NH]2)[O]1 (stereo partly drawn) [(R,R)-pyrodach-2, (R,R)-trans-1,2-cyclohexanediamine-(dihydrogenpyrophosphato)platinum(II)]
(DACH) Pt-diaquo (~RRT 0.3) (1 Month): 0.16%
(DACH) Pt-monoaquo (~RRT 0.7) (1 Month): 1.12%
Assay (Potency) (1 Month): 98.4%
PT-112 Dimer (~RRT 4.0) (1 Month): 0.35%
RRT 0.50 (1 Month): 0.07%
RRT 0.56 (1 Month): 0.15%
RRT 0.68 (1 Month): 0.21%
RRT 0.86 (1 Month): 0.06%
RRT 3.1-3.2 (1 Month): 0.56%
Total Related Substances (1 Month): 3%
pH (1 Month): 7.4
(DACH) Pt-diaquo (~RRT 0.3) (3 Month): 0.15%
(DACH) Pt-monoaquo (~RRT 0.7) (3 Month): 0.92%
Assay (Potency) (3 Month): 99.2%
PT-112 Dimer (~RRT 4.0) (3 Month): 0.33%
RRT 0.50 (3 Month): 0.11%
RRT 0.56 (3 Month): 0.20%
RRT 0.68 (3 Month): 0.11%
RRT 0.86 (3 Month): 0.05%
RRT 3.1-3.2 (3 Month): 0.77%
RRT 3.58 (3 Month): 0.14%
Total Related Substances (3 Month): 3%
pH (3 Month): 7.4
(DACH) Pt-diaquo (~RRT 0.3) (6 Month): 0.19%
(DACH) Pt-monoaquo (~RRT 0.7) (6 Month): 0.30%
Assay (Potency) (6 Month): 96.7%
PT-112 Dimer (~RRT 4.0) (6 Month): 0.36%
RRT 0.42 (6 Month): 0.06%
RRT 0.46 (6 Month): 0.09%
RRT 0.50 (6 Month): 0.31%
RRT 0.56 (6 Month): 0.09%
RRT 0.68 (6 Month): 0.16%
RRT 0.86 (6 Month): 0.07%
RRT 3.1-3.2 (6 Month): 0.86%
RRT 3.58 (6 Month): 0.37%
RRT 4.95 (6 Month): 0.06%
Total Related Substances (6 Month): 3%
pH (6 Month): 7.4
Particulate Matter (Light Obscuration) (6 Month, first value): 87 particles particles per container
Particulate Matter (Light Obscuration) (6 Month, second value): 3 particles particles per container
(DACH) Pt-diaquo (~RRT 0.3) (9 Month): 0.14%
(DACH) Pt-monoaquo (~RRT 0.7) (9 Month): 0.79%
Assay (Potency) (9 Month): 98.2%
PT-112 Dimer (~RRT 4.0) (9 Month): 0.34%
RRT 0.42 (9 Month): 0.08%
RRT 0.46 (9 Month): 0.08%
RRT 0.50 (9 Month): 0.39%
RRT 0.56 (9 Month): 0.11%
RRT 0.68 (9 Month): 0.11%
RRT 0.86 (9 Month): 0.06%
RRT 3.1-3.2 (9 Month): 0.84%
RRT 3.41 (9 Month): 0.08%
RRT 3.58 (9 Month): 0.65%
RRT 4.95 (9 Month): 0.21%
Total Related Substances (9 Month): 4%
pH (9 Month): 7.4
(DACH) Pt-diaquo (~RRT 0.3) (12 Month): 0.11%
(DACH) Pt-monoaquo (~RRT 0.7) (12 Month): 0.92%
Assay (Potency) (12 Month): 98.0%
PT-112 Dimer (~RRT 4.0) (12 Month): 0.30%
RRT 0.42 (12 Month): 0.10%
RRT 0.46 (12 Month): 0.07%
RRT 0.50 (12 Month): 0.38%
RRT 0.56 (12 Month): 0.19%
RRT 0.68 (12 Month): 0.11%
RRT 0.86 (12 Month): 0.05%
RRT 3.1-3.2 (12 Month): 0.82%
RRT 3.58 (12 Month): 0.70%
RRT 4.95 (12 Month): 0.34%
Total Related Substances (12 Month): 4%
pH (12 Month): 7.5
Particulate Matter (Light Obscuration) (12 Month, first value): 118 particles per container
Particulate Matter (Light Obscuration) (12 Month, second value): 7 particles particles per container
(DACH) Pt-diaquo (~RRT 0.3) (15 Month): 0.13%
(DACH) Pt-monoaquo (~RRT 0.7) (15 Month): 0.92%
Assay (Potency) (15 Month): 96.8%
PT-112 Dimer (~RRT 4.0) (15 Month): 0.28%
RRT 0.42 (15 Month): 0.12%
RRT 0.46 (15 Month): 0.08%
RRT 0.50 (15 Month): 0.44%
RRT 0.56 (15 Month): 0.20%
RRT 0.68 (15 Month): 0.11%
RRT 0.86 (15 Month): 0.05%
RRT 3.1-3.2 (15 Month): 0.78%
RRT 3.58 (15 Month): 0.78%
RRT 4.95 (15 Month): 0.51%
Total Related Substances (15 Month): 4%
pH (15 Month): 7.5
(DACH) Pt-diaquo (~RRT 0.3) (18 Month): 0.12%
(DACH) Pt-monoaquo (~RRT 0.7) (18 Month): 0.78%
Assay (Potency) (18 Month): 96.9%
PT-112 Dimer (~RRT 4.0) (18 Month): 0.29%
RRT 0.42 (18 Month): 0.15%
RRT 0.46 (18 Month): 0.13%
RRT 0.50 (18 Month): 0.59%
RRT 0.56 (18 Month): 0.09%
RRT 0.68 (18 Month): 0.08%
RRT 0.86 (18 Month): 0.05%
RRT 3.1-3.2 (18 Month): 0.73%
RRT 3.44 (18 Month): 0.12%
RRT 3.58 (18 Month): 1.06%
RRT 4.95 (18 Month): 0.69%
Total Related Substances (18 Month): 5%
pH (18 Month): 7.5
(DACH) Pt-diaquo (~RRT 0.3) (21 Month): 0.11%
(DACH) Pt-monoaquo (~RRT 0.7) (21 Month): 1.13%
Assay (Potency) (21 Month): 96.3%
PT-112 Dimer (~RRT 4.0) (21 Month): 0.28%
RRT 0.42 (21 Month): 0.16%
RRT 0.46 (21 Month): 0.12%
RRT 0.50 (21 Month): 0.60%
RRT 0.56 (21 Month): 0.17%
RRT 0.68 (21 Month): 0.12%
RRT 3.1-3.2 (21 Month): 0.75%
RRT 3.41 (21 Month): 0.07%
RRT 3.44 (21 Month): 0.05%
RRT 3.58 (21 Month): 1.12%
RRT 4.95 (21 Month): 0.89%
Total Related Substances (21 Month): 6%
pH (21 Month): 7.4
(DACH) Pt-diaquo (~RRT 0.3) (24 Month): 0.11%
(DACH) Pt-monoaquo (~RRT 0.7) (24 Month): 0.85%
Assay (Potency) (24 Month): 94.6%
PT-112 Dimer (~RRT 4.0) (24 Month): 0.28%
RRT 0.42 (24 Month): 0.18%
RRT 0.46 (24 Month): 0.12%
RRT 0.50 (24 Month): 0.70%
RRT 0.56 (24 Month): 0.17%
RRT 0.68 (24 Month): 0.13%
RRT 0.86 (24 Month): 0.05%
RRT 3.1-3.2 (24 Month): 0.72%
RRT 3.29 (24 Month): 0.06%
RRT 3.44 (24 Month): 0.05%
RRT 3.58 (24 Month): 1.07%
RRT 4.95 (24 Month): 1.12%
Total Related Substances (24 Month): 6%
pH (24 Month): 7.4
(DACH) Pt-diaquo (~RRT 0.3) (Initial): 0.16%
(DACH) Pt-monoaquo (~RRT 0.7) (Initial): 0.84%
Assay (Potency) (Initial): 98.1%
PT-112 Dimer (~RRT 4.0) (Initial): 0.34%
RRT 0.50 (Initial): 0.06%
RRT 0.56 (Initial): 0.08%
RRT 0.68 (Initial): 0.09%
RRT 3.1-3.2 (Initial): 0.11%
Total Related Substances (Initial): 2%
pH (Initial): 7.4
Particulate Matter (Light Obscuration) (Initial, first value): 30 particles particles per container and 30 particles per particles per container
Particulate Matter (Light Obscuration) (Initial, second value): 11 particles particles per container and 11 particles per particles per container
